# Non-standard residues stand in square brackets, D forms with d. Sec = N[C@@H](C[SeH])C(=O)O
# B1: Full-length selenoprotein P: full-length selenoprotein P prepared from plasma with the antibody affinity column (protein)
# chain: ESQDQSSLCKQPPAWSIRDQDPMLNSNGSVTVVALLQAS[Sec]YLCIIEASKLEDLRVKLKKEGYSNISYIVVNHQGISSRLKYTHLKNKVSEHIPVYQQEENQTDVWTLLNGSKDDFLIYDRCGRLVYHLGLPFSFLTFPYVEEAIKIAYCEKKCGNCSLTTLKDEDFCKRVSLATVDKTVETPSPHYHHEHHHNHGHQHLGSSELSENQQPGAPNAPTHPAPPGLHHHHKHKGQHRQGHPENRDMPASEDLQDLQKKLCRKRCINQLLCKLPTDSELAPRS[Sec]CCHCRHLIFEKTGSAIT[Sec]QCKENLPSLCS[Sec]QGLRAEENITESCQ[Sec]RLPPAA[Sec]QISQQLIPTEASAS[Sec]R[Sec]KNQAKK[Sec]E[Sec]PSN
# modifications: ends and bridges not checked
# Tests used:
# Format in all cases: cell-based, human
# [1] = test system: Dami cells; assay: Cell death induced by fatty acid in serum free culture of Dami cells; settings: for induction of cell death: 10 μM, serum free culture in the absence of selenoprotein P; for effective concentration inhibiting cell death: in the presence of 4 μM linoleic acid
# Protocol: (§1) To 1 ml Dami cells (1×10^6 cells/dish/3 ml), which can be subcultured in serum free medium SFO3 (manufactured by Sanko Jun-yaku K. K.) containing 0.05 μM 2ME and 0.1% BSA, was added 2 ml 1:2:2 mixed medium (SA medium) of RPMI 1640/D-MEM/F-12. The cells were cultured for three days and recovered for assay. The cells were washed twice with SA/0.05% fatty acid free BSA (manufactured by Wako Jun-yaku K. K.) and suspended at 3×10^4 cells/ml in the same medium containing 2 to 16 μM arachidonic acid, linoleic acid or linolenic acid. The cell suspension was added to a 96-well plate in each 198 μl for wells for sample addition or in each 100 μl for wells for serial dilution.
# To the wells for sample addition was added each 2 μl of 100 μM assay sample and, after stirring, a serial dilution was made with the wells containing 100 μl cell suspension. The plate was incubated at 37° C. in CO2 incubator for 4 to 5 days.
# [2] = test system: Dami cells; assay: Comparison with other antioxidants: cell death in serum free culture of Dami cells in the presence of HSA
# Protocol: It was estimated to what extent vitamin E, known as being useful as an antioxidant to lipid oxidation, and catalase, acting for removal of hydrogen peroxide, could inhibit cell death induced in the assay system of the present invention while serum free culture in the presence of HSA.
# as §1, with “added […]” for “added 2”, “with 50% PBS/SA/0.03% HSA” for “with SA/0.05% fatty acid free BSA”, “by SIGMA)” for “by Wako Jun-yaku K. K.)”, “suspended” for “suspended at 3×10^4 cells/ml”, “medium at 3×10^4 cells/ml.” for “medium containing 2 to 16 μM arachidonic acid, linoleic acid or linolenic acid.”, “each 190” for “each 198”
# To the wells for sample addition was added each 10 μl of assay sample, i.e. 20 μM vitamin E, catalase or the selenoprotein P fragment and, after stirring, a serial dilution was made with the wells containing 100 μl cell suspension. The plate was incubated at 37° C. in CO2 incubator for 4 to 5 days followed by estimation. For estimation, a sample concentration necessary for cell death inhibition was compared to each other on Day 4 and thereafter. […] The selenoprotein P fragment could inhibit cell death up to 60 pM. From the fact that vitamin E did inhibit cell death in the assay system of the present invention, it was estimated that peroxidization of fatty acids bound to HSA (SIGMA) might be responsible for cell death induction. Moreover, it was expected that the selenoprotein P fragment, which inhibited cell death more effectively than vitamin E, would also act much more efficiently to events to which vitamin E was know to be effective.
# [3] = test system: Dami cells; assay: Cell death-inhibitory activity in Dami cells, serum free culture with HSA, serial dilution
# Text: For screening factors having the cell death-inhibitory activity, a culture system needs to be established where cell death is induced. […] A diluted sample of active fractions may be added to this culture system to thereby estimate the cell death-inhibitory activity.
# Based on the assay system as described above, the present inventors have aimed at components within the living body, especially those derived from blood, and thoroughly investigated for searching the activity of interest. […] For the purpose of quantification of the cell death-inhibitory activity as used herein, dilution of not more than 100-folds is indicated as “0” while in case of dilution of more than 100-folds, a figure of said dilution per se is used for indicating the activity.
# To 1 ml Dami cells (described in Greenberg S. M. et al., Blood, vol. 72, p. 1968–1977 (1988); 1×10^6 cells/dish/3 ml), which can be subcultured in serum free medium SFO3 (manufactured by Sanko Jun-yaku K. K.) containing 0.05 μM 2ME and 0.1% BSA, was added 2 ml 1:2:2 mixed medium (SA medium) of RPMI 1640/D-MEM/F-12. The cells were cultured for three days and recovered for assay. The cells were washed twice with 50% PBS/SA/0.03% HSA (manufactured by SIGMA) and suspended in the same medium at 3×10^4 cells/ml. The cell suspension was added to a 96-well plate in each 200 μl for wells for sample addition or in each 100 μl for wells for serial dilution. To the wells for sample addition was added 2 μl assay sample and, after stirring, a serial dilution was made with the wells containing 100 μl cell suspension. The plate was incubated at 37° C. in CO2 incubator for 4 to 5 days followed by estimation.
molecule,measurement,setting,value
CCCCC/C=C\C/C=C\C/C=C\CCCCCCC(=O)O [dihomo-γ-linolenic acid],induction of cell death,[1],induced cell death
catalase,cell death-inhibitory activity (in words),[2]; serial dilution from 20 μM sample,no cell death-inhibitory activity
docosatrienoic acid,induction of cell death,[1],induced cell death
CCCCC/C=C\C/C=C\C/C=C\C/C=C\CCCC(=O)O [arachidonic acid],induction of cell death,[1],induced cell death
superoxide dismutase,cell death-inhibitory activity (in words),[3]; each 70 μM of the samples,some activity
same,cell death-inhibitory activity relative to the peptide fragment of the present invention,[3]; each 70 μM of the samples,about 1/100
same,cell death-inhibitory activity relative to the peptide fragment of the present invention,"[3]; each 70 μM of the samples, listed as SOD",1/100
vitamin E,effective concentration inhibiting cell death,[1],about 100 nM
same,inhibition of cell death at 60 nM,[2]; 60 nM,could not
same,sample concentration up to which cell death is inhibited,"[2]; Day 4 and thereafter, serial dilution",125 nM
eicosadienoic acid,induction of cell death,[1],induced cell death
docosadienoic acid,induction of cell death,[1],induced cell death
CCCCC/C=C\C/C=C\C/C=C\C/C=C\CCCCCC(=O)O [adrenic acid],induction of cell death,[1],induced cell death
CCCCC/C=C\C/C=C\CCCCCCCC(=O)O [linoleic acid],induction of cell death,[1],induced cell death
B1,effective concentration inhibiting cell death,[1],about 100 nM
same,Specific activity,"[3]; Table 3, activity per protein",<2500
same,Activity,"[3]; Table 3, fold dilution up to which cells survive",<100
same,cell death-inhibitory activity per proteins compared with the fragment,[3]; purified with anti-selenoprotein P antibody column,much lower

# Reference: patent US7199097B1, “Peptide fragments having cell death inhibitory activity” (Juridical Foundation The Chemo-Sero-Therapeutic Research …, priority 1998, dated 2007)
